We go through two compounds from publication PMC5222342, “Leukotriene B₄ Metabolism and p70S6 Kinase 1 Inhibitors: PF-4708671 but Not LY2584702 Inhibits CYP4F3A and the ω-Oxidation of Leukotriene B₄ In Vitro and In Cellulo” (PLoS ONE, 2017).

Structures are written as SMILES.

Assay [1] deals with T1, CYP4F3A (Homo sapiens, UniProt Q08477).
T1 sequence (Q08477 1-520): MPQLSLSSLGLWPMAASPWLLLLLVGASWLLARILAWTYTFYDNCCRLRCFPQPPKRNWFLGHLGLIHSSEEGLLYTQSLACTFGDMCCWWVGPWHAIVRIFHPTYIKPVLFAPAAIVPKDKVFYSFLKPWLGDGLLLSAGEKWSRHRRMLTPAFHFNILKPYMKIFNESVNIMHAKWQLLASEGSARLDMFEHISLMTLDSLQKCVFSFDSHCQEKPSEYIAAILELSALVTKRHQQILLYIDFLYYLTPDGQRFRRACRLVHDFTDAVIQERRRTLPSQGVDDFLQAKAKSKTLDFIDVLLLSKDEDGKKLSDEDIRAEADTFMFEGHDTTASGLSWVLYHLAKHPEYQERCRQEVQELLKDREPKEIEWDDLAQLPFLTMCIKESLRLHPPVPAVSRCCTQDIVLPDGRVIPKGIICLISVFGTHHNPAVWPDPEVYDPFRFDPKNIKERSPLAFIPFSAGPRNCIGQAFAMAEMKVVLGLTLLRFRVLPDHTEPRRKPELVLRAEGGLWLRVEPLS
Briefly: recombinant CYP4F3A LTB4 omega-oxidation assay, HPLC; Michaelis-Menten and Lineweaver-Burk kinetics. Format: biochemical. Details: gene CYP4F3; human recombinant CYP4F3A.

For assay [2], the target named is T1, CYP4F3A. Details: gene CYP4F3.

As to `CCc1cncnc1N1CCN(Cc2nc3cc(C(F)(F)F)ccc3[nH]2)CC1` [PF-4708671], the IC50 (commonly the concentration needed to halve the response being measured) on CYP4F3A [1] was approximately 0.75 µM. `CCCCC/C=C\C[C@@H](O)/C=C/C=C/C=C\[C@@H](O)CCCC(=O)O` [LTB4]: the “omega-oxidation of LTB4 (1-20 uM) by recombinant CYP4F3A, HPLC, Michaelis-Menten” value at CYP4F3A [2] was “Human recombinant CYP4F3A was incubated with increasing concentrations of PF-4708671 before the addition of LTB4 at different concentrations”.
